pIC50: −log10 of the molar value. Positions of bridges follow the written chain, without caps; N, C: chain ends. Residues, ends and D or L forms follow the SMILES beside them.
What was measured:
[1] = target: CCL2_HUMAN (Homo sapiens, UniProt P13500); test: Neutralisation of chemokine induced THP-1 cell migration; format: cell-based; conditions: single concentration of peptide; EC80 CCL2 1.2 nM
Procedure: (§1) Table 1. Tick CKBPs described in PCT/GB2017/050563 and [17]. Tick peptide sequences isolated in yeast surface display fluorescent-activated cell sorting (FACS) screens using a labelled chemokine. Identity with Evasin-1, 4 or 3 was calculated using BLAST. Abbreviations: IXORI—Ixodes ricinus, RHISA—Rhipicephalus sanguineus, AMBMA—Amblyomma maculatum, AMBPA—Amblyomma parvum, AMBTR—Amblyomma triste, AMBAM—Amblyomma americanum, AMBCA—Amblyomma cajennense, RHIPU—Rhipicephalus pulchellus. Table 2A-C. Binding characteristics of tick CKBPs previously disclosed (PCT/GB2017/050563 and [17]). All members of the human chemokine family[164] are listed in column 1. Binding to human chemokines was determined for 14 tick CKBPs using biolayer interferometry (BLI) with calculated Kd shown as Molar (Moles/Litre). Binding data for 17 other novel tick CKBPs was assayed using yeast surface display[17,166],with positive binding results shown as “YES”. For biolayer interferometry, His-tagged purified tick CKBP was bound to a Ni-NINTA sensor on an OctetRed® 384 system, and then binding to each chemokine listed (with the exception of CCL25, CCL26, CXCL16, CXCL17, CXCL4L1, XCL2) was assayed in a cross-binding screen at a chemokine concentration of 300 nM as described. For those chemokines showing binding to a tick CKBP in the cross-binding screen, binding assays were repeated using different doses of chemokine. Association, equilibrium and dissociation data were analysed using Octet software to create corresponding fitted curves, and used to calculate Kd. For yeast surface display, (YSD) background fluorescence was controlled for by using either an empty vector or by omitting the chemokine (i.e. using streptavidin-Alexa647 alone). An arbitrary threshold of >3 fold over background mean fluorescence intensity was chosen to describe confirmed re-tests. Where binding was detected data are indicated as “YES”. […] For yeast surface display data, empty cells represent chemokines that were not tested. Binding data published in relation to previously described tick CKBPs (Evasins-1, 4 and 3) is also shown for comparison in each of FIGS. 2A-C, with the relevant data obtained from publications: [20-22,32]. Table 3: Neutralisation of human chemokines by tick CKBPs previously disclosed (PCT/GB2017/050563 and [17]). Neutralising activity was determined using a quantitative THP1 cell migration assay in a 96-well Boyden chamber with chemokine in the bottom chamber as described. Cells migrating through to the bottom chamber at 4 hours were counted using flow cytometry in a 96 well plate format. IC50 for neutralisation was determined at the chemokine EC80 dose as determined using a range of tick CKBP concentrations. Data was analysed using GraphPad Prism to determine IC50, which is shown as Molar (Moles/Litre). Empty cells represent experiments not done. Table 4—Other previously described tick CKBPs. Tick CKBPs that were also described in PCT/GB2017/050563 and Singh et al. are indicated in “Notes”. Table 5.—Novel tick CKBPs of the invention. Table 6. […] The peptide sequence prefix indicates the identity, and suffix indicate the tick species as follows: AMBCA, Amblyomma cajennense and IXORI, Ixodes ricinus. […] Individual yeast clones recovered from the library were re-tested using a FACS (fluorescence activated cell sorting), experiment. The binding of the peptide to the chemokine was assayed by measuring the percent (%), of yeast cells expressing the given peptide that exceeded a background threshold set by measuring the fluorescence of the yeast library pool treated with streptavidin-[…] alone. When more than one independent yeast clone was isolated for a given peptide-chemokine combination, the mean percent shift was calculated and reported in column 3.

[2] = target: T1, CCL3_HUMAN (Homo sapiens, UniProt P10147); test: as above; format: cell-based; conditions: single concentration of peptide; EC80 CCL3 3.5 nM
T1 sequence (P10147 24-92): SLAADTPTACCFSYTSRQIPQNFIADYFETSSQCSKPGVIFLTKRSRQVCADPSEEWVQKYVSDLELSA
Procedure: as §1

[3] = target: CCL7_HUMAN (Homo sapiens, UniProt P80098); test: as above; format: cell-based; conditions: single concentration of peptide; EC80 CCL7 7.2 nM
Procedure: as §1

[4] = target: T2, CCL8_HUMAN (Homo sapiens, UniProt P80075); test: as above; format: cell-based; conditions: single concentration of peptide; EC80 CCL8 5.8 nM
T2 sequence (P80075 24-99): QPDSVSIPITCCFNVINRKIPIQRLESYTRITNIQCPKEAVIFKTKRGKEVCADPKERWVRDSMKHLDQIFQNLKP
Procedure: as §1

[5] = target: T3, human CCL2-647 (Homo sapiens, UniProt P13500); test: Fluorescent chemokine binding to THP-1 cells (flow cytometry); format: cell-based; conditions: CCL2-647 1.2 nM, read-out: IC50 against CCL2-647 induced THP-1 cellular fluorescence
T3 construct: purchased Almac (UK)
Procedure: Data are shown as mean of two technical replicates. […] Curves were fitted with 4 parameters to estimate IC50.
Fluorescent chemokine (conjugated to AlexaFluor-647) binding to THP-1 cells results in an increase in the cellular fluorescence intensity, which is quantitatively measured using flow cytometry.
Fluorescent Chemokine/Receptor Blocking Assay CCL8-647 (2.5 nM, final) or […] (1.2 nM, final) was incubated for 30 minutes with varying doses of peptide (0-100 μM, final concentration) in 50 μL assay buffer (RPMI-1640+L-glutamine (4 mM)+10% heat treated fetal bovine serum+0.2% DMSO) at 37° C. This mixture was then added to 50,000 THP-1 cells in a 96-well v-bottomed plated to give a final volume of 100 μL, and everything incubated together for a further 30 minutes at 37° C. Following this time, the plate was centrifuged, the supernatant flicked off, and the cells resuspended in 150 μL ice cold PBSA. This was repeated twice more and the cells were finally resuspended in 150 μL ice cold PBSA. The median fluorescence intensity of 10,000 cells on the RL-1 channel was determined using an ATTUNE flow cytometer and plotted as function of peptide concentration and the data fitted to an inhibitor response curve with 4 parameters using Graph Pad prism 6. Experiments were performed as two technical and three biological replicates.

[6] = target: T4, CXCL9_HUMAN (Homo sapiens, UniProt Q07325); test: Yeast surface display (YSD) FACS binding; conditions: FACS re-test; mean percent shift where several clones
T4 sequence (Q07325 23-125): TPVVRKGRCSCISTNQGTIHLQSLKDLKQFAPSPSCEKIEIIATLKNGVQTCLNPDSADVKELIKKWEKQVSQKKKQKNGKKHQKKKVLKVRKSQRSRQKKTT
Procedure: Table 1. Tick CKBPs described in PCT/GB2017/050563 and [17]. Tick peptide sequences isolated in yeast surface display fluorescent-activated cell sorting (FACS) screens using a labelled chemokine. Identity with Evasin-1, 4 or 3 was calculated using BLAST. Abbreviations: IXORI—Ixodes ricinus, RHISA—Rhipicephalus sanguineus, AMBMA—Amblyomma maculatum, AMBPA—Amblyomma parvum, AMBTR—Amblyomma triste, AMBAM—Amblyomma americanum, AMBCA—Amblyomma cajennense, RHIPU—Rhipicephalus pulchellus. Table 2A-C. Binding characteristics of tick CKBPs previously disclosed (PCT/GB2017/050563 and [17]). All members of the human chemokine family[164] are listed in column 1. Binding to human chemokines was determined for 14 tick CKBPs using biolayer interferometry (BLI) with calculated Kd shown as Molar (Moles/Litre). […] Association, equilibrium and dissociation data were analysed using Octet software to create corresponding fitted curves, and used to calculate Kd. For yeast surface display, (YSD) background fluorescence was controlled for by using either an empty vector or by omitting the chemokine (i.e. using streptavidin-Alexa647 alone). An arbitrary threshold of >3 fold over background mean fluorescence intensity was chosen to describe confirmed re-tests. Where binding was detected data are indicated as “YES”. […] Data was analysed using GraphPad Prism to determine IC50, which is shown as Molar (Moles/Litre). […]

T3 sequence (P13500 24-99): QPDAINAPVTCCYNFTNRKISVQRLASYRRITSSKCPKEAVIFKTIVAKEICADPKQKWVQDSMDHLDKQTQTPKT
Sequence of CCL2_HUMAN (P13500 24-99): as above
Sequence of CCL7_HUMAN (P80098 24-99): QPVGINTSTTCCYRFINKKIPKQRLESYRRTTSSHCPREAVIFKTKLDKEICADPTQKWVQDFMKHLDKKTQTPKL

| Compound | Effect on CCL2-induced THP-1 cell migration [1] | Effect on CCL3-induced THP-1 cell migration [2] | Effect on CCL7-induced THP-1 cell migration [3] | Effect on CCL8-induced THP-1 cell migration [4] | pIC50 [5] | Chemokines bound in yeast surface display and % cells over threshold fluorescence: CXCL9_HUMAN [6] |
| --- | --- | --- | --- | --- | --- | --- |
| CC(C)[C@@H]1NC(=O)[C@@H]2CCCN2C(=O)[C@H](CCCCN)NC(=O)[C@H](Cc2ccccc2)NC(=O)[C@H](Cc2ccccc2)NC(=O)[C@H](CC(=O)O)NC(=O)[C@H](CCC(=O)O)NC(=O)[C@H](Cc2ccc(O)cc2)NC(=O)[C@H](CC(=O)O)NC(=O)[C@H](CCC(=O)O)NC(=O)[C@H](CC(=O)O)NC(=O)[C@H](CCC(=O)O)NC(=O)[C@H](Cc2ccc(O)cc2)NC(=O)CSC[C@@H](C(=O)N[C@@H](Cc2ccc(O)cc2)C(=O)N[C@@H](Cc2ccccc2)C(N)=O)NC(=O)[C@H]([C@@H](C)O)NC1=O [BK1.2] ({CH2CO}-YEDEDYEDFFKPVTCYF-NH2; thioether N-15) | stronger effect | significantly reduced | stronger effect | reduced CCL8 induced cell migration to baseline levels | 5.20 |  |
| P1124_IXORI: novel CXC-binding tick CKBP, Ixodes ricinus (DSKGTSDSQDSTKSIKVDFCETNCTKTDGGWTGCTGDCICVSVGDSIEGRCMDFG; listed as Ixodes ricinus) |  |  |  |  |  | CXCL9_HUMAN 31% |

Reference: patent US20200247855A1, “THERAPY AND DIAGNOSTICS” (OXFORD UNIVERSITY INNOVATION LIMITED, priority 2017, published 2020)
